Test system: Monocotyledonous and dicotyledonous test plants
Experiment: Post-emergence herbicidal action, greenhouse pot test, sprayed at the 2- to 3-leaf stage, 9-level rating after 2 to 3 weeks
Format: in vivo
Conditions: 250 g/ha, rated after 2 to 3 weeks, 9-level scale
Experimental: Post-Emergence Herbicidal Action
Monocotyledonous and dicotyledonous test plants are grown in standard soil in pots. At the 2- to 3-leaf stage of the test plants, the test substances are sprayed at optimum dosage (500 l of water/ha) as an aqueous suspension (prepared from a wettable powder (example F3, b) according to WO 97/34485) or emulsion (prepared from an emulsion concentrate (example F1, c) according to WO 97/34485). The test plants are then grown further under optimum conditions in a greenhouse.
After a test period of 2 to 3 weeks, the test is evaluated using a 9-level scale of rating (1=complete damage, 9=no effect). Ratings of 1 to 4 (in particular 1 to 3) mean good to very good herbicidal action.

Row | SMILES | Post-emergence action rating, Abutilon | Post-emergence action rating, Amaranth | Post-emergence action rating, Chenop. | Post-emergence action rating, Digitaria | Post-emergence action rating, Echino. | Post-emergence action rating, Ipopur. | Post-emergence action rating, Panicum | Post-emergence action rating, Xanth.
1 | COc1ccccc1OCc1nc(C(F)(F)F)ccc1C(=O)C1=C(O)C2CCC(C2)C1=O (stereo not drawn) [A33-B52] | 2 | 2 | 1 | 2 | 2 | 2 | 2 | 3
2 | CSCCOCc1nc(C(F)(F)F)ccc1C(=O)C1=C(O)C2CCC(C2)C1=O (stereo not drawn) [A817-B52] | 2 | 2 | 1 | 2 | 2 | 2 | 1 | 2
3 | C[S+]([O-])CCOCc1nc(C(F)(F)F)ccc1C(=O)C1=C(O)C2CCC(C2)C1=O (stereo not drawn) [A818-B52] | 2 | 2 | 1 | 2 | 3 | 2 | 2 | 2
4 | CSc1nnc(SCc2nc(C(F)(F)F)ccc2C(=O)C2=C(O)CCCC2=O)s1 [A829-B1] | 7 | 2 | 2 | 9 | 7 | 6 | 7 | 4
5 | CSc1nnc(SCc2nc(C(F)(F)F)ccc2C(=O)C2=C(O)C3CCC(C3)C2=O)s1 (stereo not drawn) [A829-B52] | 3 | 2 | 2 | 6 | 4 | 4 | 2 | 6
6 | O=C(C1=C(O)C2CCC(C2)C1=O)c1ccc(C(F)(F)F)nc1COCc1cccs1 (stereo not drawn) [A854-B52] | 2 | 1 | 1 | 2 | 2 | 2 | 1 | 2
7 | O=C(C1=C(O)C2CCC(C2)C1=O)c1ccc(C(F)(F)F)nc1COCCOCc1ccccc1 (stereo not drawn) [A855-B52] | 2 | 2 | 1 | 2 | 2 | 2 | 2 | 2
8 | O=C(C1=C(O)C2CCC(C2)C1=O)c1ccc(C(F)(F)F)nc1COCCO (stereo not drawn) [A856-B52] | 2 | 2 | 1 | 2 | 2 | 1 | 2 | 2
9 | CC(C)(C)C(=O)OC1=C(C(=O)c2ccc(C(F)(F)F)nc2COCCO)C(=O)C2CCC1C2 (stereo not drawn) [A856-B112] | 2 | 3 | 1 | 3 | 5 | 3 | 3 | 3

From patent US7378375B1, “Substituted pyridine herbicides” (Syngenta Crop Protection, Inc., priority 2000, dated 2008)
